pIC50, pKd: −log10 of the molar value. Where two headings read alike, the source gives them in different places. Where a SMILES comes first, the peptide text is derived from it. Bridges are numbered along the chain shown (N, C = ends).
Columns and labels:
PDGF bb = biological target: T1, PDGF bb (Homo sapiens, UniProt P01127); assay: SPR; details: Table S16; SPR against PDGF bb; averaged from at least three independent runs; estimated KD values due to possible non-specific binding
T1 construct: purchased R&D Systems BT220-010/CF
T1 sequence (P01127 82-190 limits assumed): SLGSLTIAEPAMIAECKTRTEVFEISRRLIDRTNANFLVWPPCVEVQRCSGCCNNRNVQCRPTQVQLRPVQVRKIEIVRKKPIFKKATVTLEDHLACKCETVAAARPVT
Experimental: (§1) SPR measurements were carried out on a Biacore S200 instrument (GE Healthcare) with PBS-T (PBS with 0.05% Tween 20, pH 7.4) as the assay buffer as described previously. For kinetic measurements, biotinylated protein was captured on three separate sensor channels of a Series S SA Sensor chip (GE Healthcare). The chip was then blocked with 0.1 mg/mL free biotin. A concentration series of the DCP were injected to the chip. Data were double-referenced by subtracting the signal from a control sensor channel (coated with biotin only) and the signal from a buffer injection. Binding data were fitted using the manufacturer’s software (1:1 or two state binding model for single-cycle kinetics or steady-state model for multi-cycle kinetics).

human VEGF-A = biological target: T2, human VEGF-A (Homo sapiens, UniProt P15692); assay: SPR; assay type: binding
T2 construct: biotin-VEGF-A (8–109, Genentech)
T2 sequence (P15692 214-315): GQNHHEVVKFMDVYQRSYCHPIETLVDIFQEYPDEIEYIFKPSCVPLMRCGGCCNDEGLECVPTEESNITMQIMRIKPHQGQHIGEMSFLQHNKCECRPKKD

human IgG Fc [1] = biological target: T3, human IgG Fc (Homo sapiens, UniProt P01857); assay: SPR; assay type: binding
T3 construct: Biotin-SP-ChromPure Human IgG, Fc fragment; purchased Jackson Immunoresearch Labs Inc. 009060008

human IgG Fc [2] = biological target: T3, human IgG Fc; assay: Phage competition ELISA (synthetic DCP vs its own phage); assay type: binding; details: Table S12; synthetic DCP competing with its own phage for biotinylated human IgG Fc on neutravidin plate; absorbance 450 nm; averaged from at least three independent runs
Ly6E-rat IgG Fc = Ly6E-rat IgG Fc (UniProt P20761+Q16553); assay: SPR; design: species or system human; details: Table S17, first KD value, at least three independent runs, estimated values due to possible non-specific binding, read-out: KD against rat Fc-Ly6E
Ly6E-rat IgG Fc, sequence (Q16553+P20761 fused): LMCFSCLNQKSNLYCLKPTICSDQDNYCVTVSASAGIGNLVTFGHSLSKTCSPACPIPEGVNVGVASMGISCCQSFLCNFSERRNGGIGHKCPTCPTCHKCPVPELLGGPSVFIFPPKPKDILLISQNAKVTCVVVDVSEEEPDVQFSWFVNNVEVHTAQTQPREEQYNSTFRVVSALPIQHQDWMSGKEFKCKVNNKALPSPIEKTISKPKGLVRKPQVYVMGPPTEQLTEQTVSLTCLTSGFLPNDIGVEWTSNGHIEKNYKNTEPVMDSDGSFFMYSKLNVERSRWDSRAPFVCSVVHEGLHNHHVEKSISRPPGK
Experimental: as §1

human serum albumin = biological target: T4, human serum albumin (Homo sapiens, UniProt P02768); assay: Phage competition ELISA with phage displaying Hs-CHR-3; assay type: binding; details: Fig 4H
T4 construct: purchased Rockland Immunochemicals, Inc. 009–0633
T4 sequence (P02768 25-609): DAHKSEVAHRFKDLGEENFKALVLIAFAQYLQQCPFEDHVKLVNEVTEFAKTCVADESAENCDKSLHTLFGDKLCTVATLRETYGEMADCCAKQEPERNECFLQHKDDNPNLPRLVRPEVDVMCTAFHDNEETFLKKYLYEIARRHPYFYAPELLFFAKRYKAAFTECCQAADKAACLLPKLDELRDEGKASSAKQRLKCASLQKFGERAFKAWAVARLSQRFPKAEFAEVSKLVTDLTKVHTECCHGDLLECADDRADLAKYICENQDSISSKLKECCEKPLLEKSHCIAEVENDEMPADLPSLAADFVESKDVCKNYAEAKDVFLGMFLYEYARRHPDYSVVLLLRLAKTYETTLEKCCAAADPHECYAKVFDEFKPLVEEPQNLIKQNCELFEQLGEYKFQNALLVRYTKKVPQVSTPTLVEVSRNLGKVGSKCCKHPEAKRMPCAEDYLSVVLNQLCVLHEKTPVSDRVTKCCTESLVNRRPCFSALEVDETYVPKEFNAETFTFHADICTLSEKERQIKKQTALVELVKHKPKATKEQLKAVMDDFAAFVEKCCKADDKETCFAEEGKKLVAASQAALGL
Experimental: To analyze the competitive binding to the target protein for the synthetic DCP and its phage counterpart displaying the same DCP, 384-well plates were coated with 2 μg/mL of neutravidin in PBS overnight at 4°C. The plates were blocked with PBS containing 0.5% BSA and incubated with biotinylated human IgG Fc or serum albumin for 20 min at room temperature. Serial diluted synthetic DCP was pre-incubated with phage for 30 min at room temperature then the mixture was added to the 384 well plates for 30 min at room temperature. The plates were washed and incubate with anti-M13 antibody (1:10,000, HRP conjugated, Creative Diagnostics, cat# CAB-655M) for 30 min at room temperature, followed by washing, development and quenching (1 M H3PO4). The absorbance at 450 nm was recorded to calculate the IC50 values.
To further map the binding epitopes of the Ig-DCPs on human IgG Fc, we developed a protein A-human IgG Fc competition ELISA. […] The findings imply Hs-CHR-1 and -3 bind to a similar epitope on human serum albumin, which partially overlap with the SA21 binding site (Fig 4I).

CC[C@H](C)[C@@H]1NC(=O)[C@H](Cc2ccccc2)NC(=O)[C@@H]2CCCN2C(=O)[C@H](CC(N)=O)NC(=O)[C@H](CC(=O)O)NC(=O)[C@H](CC(=O)O)NC(=O)[C@H](Cc2ccccc2)NC(=O)[C@@H](NC(=O)CN)CSSC[C@@H]2NC(=O)CNC(=O)[C@H](C)NC(=O)[C@H](CC(C)C)NC(=O)[C@@H]3CSSC[C@@H](C(=O)NCC(=O)O)NC(=O)[C@H](Cc4c[nH]c5ccccc45)NC(=O)[C@H]([C@@H](C)O)NC(=O)[C@H](CC(=O)O)NC(=O)[C@H](Cc4ccc(O)cc4)NC(=O)[C@H](Cc4c[nH]c5ccccc45)NC(=O)[C@H](CSSC[C@H](NC(=O)[C@H](C)NC1=O)C(=O)N[C@@H](CCCCN)C(=O)N[C@@H](CCC(N)=O)C(=O)N[C@@H](CC(=O)O)C(=O)N[C@@H](CO)C(=O)N[C@@H](CC(=O)O)C(=O)N3)NC(=O)[C@H](C(C)C)NC2=O [P-EET-6] (H-GCFDDNPFIACKQDSDCLAGCVCWYDTWCG-OH; disulfide 2-21, 11-23, 17-29) gave a pKd (PDGF bb) of less than 5.17.

Work on CC[C@H](C)[C@@H]1NC(=O)[C@H](C(C)C)NC(=O)[C@H](Cc2c[nH]cn2)NC(=O)[C@H](Cc2ccc(O)cc2)NC(=O)[C@H](CCC(=O)O)NC(=O)[C@H](CCC(N)=O)NC(=O)[C@H](CC(=O)O)NC(=O)[C@H]([C@@H](C)O)NC(=O)[C@H](C)NC(=O)[C@H](Cc2c[nH]c3ccccc23)NC(=O)[C@H](C(C)C)NC(=O)[C@H](C)NC(=O)[C@H](CO)NC(=O)[C@@H]2CSSC[C@@H]3NC(=O)[C@H](CO)NC(=O)CNC(=O)[C@H]([C@@H](C)O)NC(=O)[C@H](CSSC[C@H](N)C(=O)N[C@@H](CCCCN)C(=O)NCC(=O)N[C@@H](CCCCN)C(=O)NCC(=O)N[C@@H](C)C(=O)N[C@@H](CCCCN)C(=O)N2)NC(=O)[C@H](CSSC[C@@H](C(=O)O)NC(=O)[C@H](CCCCN)NC(=O)CNC(=O)[C@H](CO)NC(=O)[C@H](CCCNC(=N)N)NC3=O)NC1=O [V-CON-1] yielded a pKd (human VEGF-A) of less than 5.34.

Work on CC[C@H](C)[C@@H]1NC(=O)[C@H]([C@@H](C)O)NC(=O)[C@H](Cc2ccccc2)NC(=O)[C@@H]2CCCN2C(=O)[C@H](Cc2ccccc2)NC(=O)[C@H](Cc2c[nH]c3ccccc23)NC(=O)[C@@H]2CCCN2C(=O)[C@H]([C@@H](C)O)NC(=O)[C@H](CCSC)NC(=O)[C@@H](NC(=O)CN)CSSC[C@@H]2NC(=O)CNC(=O)[C@H](C)NC(=O)[C@H](CC(C)C)NC(=O)[C@@H]3CSSC[C@@H](C(=O)NCC(=O)O)NC(=O)[C@H](Cc4ccccc4)NC(=O)CNC(=O)[C@H](CC(N)=O)NC(=O)[C@@H]4CCCN4C(=O)CNC(=O)[C@H](CSSC[C@H](NC(=O)[C@H](CC(N)=O)NC1=O)C(=O)N[C@@H](CCCCN)C(=O)N[C@@H](CCC(N)=O)C(=O)N[C@@H](CC(=O)O)C(=O)N[C@@H](CO)C(=O)N[C@@H](CC(=O)O)C(=O)N3)NC(=O)[C@H](C(C)C)NC2=O [V-EET-3] (H-GCMTPWFPFTINCKQDSDCLAGCVCGPNGFCG-OH; disulfide 2-23, 13-25, 19-31) yielded a pKd (human VEGF-A; Table S16, SPR against VEGF-A, averaged from at least three independent runs, estimated KD values due to possible non-specific binding, read-out: KD) of less than 5.82.

CC[C@H](C)[C@@H]1NC(=O)[C@H](C)NC(=O)[C@H](CO)NC(=O)[C@@H]2CSSC[C@@H]3NC(=O)[C@H](Cc4ccc(O)cc4)NC(=O)CNC(=O)[C@H](Cc4ccccc4)NC(=O)[C@H](CCC(N)=O)NC(=O)[C@H](CO)NC(=O)[C@H](CSSC[C@H](NC(=O)[C@H](CCC(=O)O)NC(=O)CNC(=O)[C@@H](N)C(C)C)C(=O)N[C@@H](C(C)C)C(=O)N[C@@H](CCCNC(=N)N)C(=O)NCC(=O)N[C@@H](CCCNC(=N)N)C(=O)N2)NC(=O)[C@H](CSSC[C@@H](C(=O)NCC(=O)O)NC(=O)[C@H](Cc2ccc(O)cc2)NC(=O)[C@H](CCCCN)NC(=O)[C@@H]2CCCN2C(=O)CNC(=O)[C@H](CCCCN)NC(=O)CNC3=O)NC(=O)[C@H](CO)NC1=O [Ig-AMP-2] (H-VGECVRGRCSAISCCSQFGYCGKGPKYCG-OH; disulfide 4-15, 9-21, 14-28) was tested, and the KD (human IgG Fc [1]; Table S12, SPR Biacore S200, PBS-T pH 7.4, biotinylated protein on SA chip, averaged from at least three independent runs, N.A. = no detectable binding, * estimated value due to possible non-specific binding) was “aggregation”.

In the case of CSCC[C@@H]1NC(=O)[C@H](Cc2ccc(O)cc2)NC(=O)[C@H](Cc2c[nH]c3ccccc23)NC(=O)[C@H](Cc2ccc(O)cc2)NC(=O)CNC(=O)[C@@H](NC(=O)CN)CSSC[C@@H]2NC(=O)CNC(=O)[C@H](C)NC(=O)[C@H](CC(C)C)NC(=O)[C@@H]3CSSC[C@@H](C(=O)NCC(=O)O)NC(=O)[C@H](CCC(=O)O)NC(=O)[C@@H]4CCCN4C(=O)[C@H](CCCCN)NC(=O)[C@@H]4CCCN4C(=O)[C@H](CCCNC(=N)N)NC(=O)[C@H](CSSC[C@H](NC(=O)[C@H](Cc4ccccc4)NC(=O)[C@H](Cc4c[nH]c5ccccc45)NC(=O)[C@H](CCC(N)=O)NC1=O)C(=O)N[C@@H](CCCCN)C(=O)N[C@@H](CCC(N)=O)C(=O)N[C@@H](CC(=O)O)C(=O)N[C@@H](CO)C(=O)N[C@@H](CC(=O)O)C(=O)N3)NC(=O)[C@H](C(C)C)NC2=O [Ig-EET-4], the pKd (human IgG Fc [1]; Table S12, SPR Biacore S200, PBS-T pH 7.4, biotinylated protein on SA chip, averaged from at least three independent runs, N.A. = no detectable binding, * estimated value due to possible non-specific binding, read-out: KD) was 6.02 and the pIC50 (human IgG Fc [2]) was 6.08.

In the case of CSCC[C@@H]1NC(=O)[C@H](CC(C)C)NC(=O)[C@H](CCCNC(=N)N)NC(=O)[C@H](CO)NC(=O)[C@@H]2CSSC[C@@H]3NC(=O)[C@H](CO)NC(=O)CNC(=O)[C@H]([C@@H](C)O)NC(=O)[C@H](CSSC[C@H](N)C(=O)N[C@@H](CCCCN)C(=O)NCC(=O)N[C@@H](CCCCN)C(=O)NCC(=O)N[C@@H](C)C(=O)N[C@@H](CCCCN)C(=O)N2)NC(=O)[C@H](CSSC[C@@H](C(=O)O)NC(=O)[C@H](CCCCN)NC(=O)CNC(=O)[C@H](CO)NC(=O)[C@H](CCCNC(=N)N)NC3=O)NC(=O)[C@H](CC(=O)O)NC(=O)[C@H](Cc2ccc(O)cc2)NC1=O [W T CON, reference compound], the pKd (human IgG Fc [1]) was less than 4.70.

CC[C@H](C)[C@@H]1NC(=O)[C@H](C)NC(=O)[C@@H](NC(=O)CN)CSSC[C@@H]2NC(=O)CNC(=O)[C@H](C)NC(=O)[C@H](CC(C)C)NC(=O)[C@@H]3CSSC[C@@H](C(=O)NCC(=O)O)NC(=O)[C@H](Cc4ccccc4)NC(=O)CNC(=O)[C@H](CC(N)=O)NC(=O)[C@@H]4CCCN4C(=O)CNC(=O)[C@H](CSSC[C@H](NC(=O)[C@H](CCC(N)=O)NC(=O)[C@H](Cc4ccccc4)NC(=O)[C@H](CCSC)NC(=O)[C@H](Cc4c[nH]c5ccccc45)NC(=O)CNC(=O)[C@H](CCSC)NC(=O)[C@H](Cc4c[nH]cn4)NC(=O)[C@H](Cc4ccc(O)cc4)NC1=O)C(=O)N[C@@H](CCCCN)C(=O)N[C@@H](CCC(N)=O)C(=O)N[C@@H](CC(=O)O)C(=O)N[C@@H](CO)C(=O)N[C@@H](CC(=O)O)C(=O)N3)NC(=O)[C@H](C(C)C)NC2=O [L-EET-7] showed a pKd (Ly6E-rat IgG Fc) of 7.66.

In the case of CC[C@H](C)[C@H](NC(=O)[C@H](CC(C)C)NC(=O)[C@@H](N)CCCNC(=N)N)C(=O)N[C@@H](CCC(=O)O)C(=O)N[C@@H](CC(=O)O)C(=O)N[C@H](C(=O)N[C@H]1CSSC[C@@H](C(=O)N[C@@H](CC(C)C)C(=O)N[C@@H](Cc2c[nH]c3ccccc23)C(=O)N[C@@H](CCC(=O)O)C(=O)N[C@@H](CC(=O)O)C(=O)N[C@@H](CC(=O)O)C(=O)O)NC(=O)CNC(=O)[C@H](Cc2c[nH]c3ccccc23)NC(=O)[C@H](CCCNC(=N)N)NC(=O)[C@@H]2CCCN2C(=O)[C@H](CC(C)C)NC1=O)[C@@H](C)CC [SA21] (H-RLIEDICLPRWGCLWEDD-OH; disulfide 7-13 (inferred); N-terminus and C-terminus assumed), the “inhibition of interaction between biotinylated human serum albumin and phage displaying Hs-CHR-3” value (human serum albumin) was “partially disrupted”.
